The values that follow come from PubChem BioAssay AID720589 (Broad Institute, 2013).

Calls of active or inactive are those of the source.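 Rule for the calls: active = fitted curve drops below -35% activity at a concentration within twice the top valid tested dose; inconclusive = no clear call, values can overlap the other calls; inactive = signal rising instead of falling, among other cases.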

This experiment can be described thus: ATP-based viability loss in HepG2 cells – cell-based, CellTiter-Glo luminescence, cherry-pick, set 3, cytotoxicity control, dose response (AID 720589). To be noted: HepG2 viability, ATP luminescence (CellTiter-Glo), 72 h, hits give low values. For orientation: ATP-based viability assays read luminescence as a measure of living cells.
Where [1] appears, read: at 0.1 µM, 0% = untreated, negative = ATP loss.
[2] abbreviates: at 2.85 µM, 0% = untreated, negative = ATP loss.
Where [3] appears, read: at 0.035 µM, 0% = untreated, negative = ATP loss.
[4] abbreviates: at 0.9 µM, 0% = untreated, negative = ATP loss.
[5] abbreviates: at 8 µM, 0% = untreated, negative = ATP loss.
[6] abbreviates: at 26 µM, 0% = untreated, negative = ATP loss.
Setting [7] is: at 0.011 µM, 0% = untreated, negative = ATP loss.

Consider `Cc1[nH]c(=S)sc1Cc1ccc(Cl)c(Cl)c1`, for which the max activity under setting [1] was -20.8% (inactive). On to `C[C@@H]1CN([C@@H](C)CO)C(=O)Cc2cc(NC(=O)Nc3ccc(C(F)(F)F)cc3)ccc2O[C@@H]1CN(C)Cc1ccc(C(=O)Nc2ccccc2N)cc1`, for which the max activity under setting [2] is -33% (inactive). Consider `C/C(=N\OCc1cccc(C(=O)O)c1)c1ccc(Cl)cc1`, for which the max activity under setting [3] was -7.45% (inactive).

Regarding `CC(C)(C)c1ccc(Oc2ccc(N)cn2)cc1`, the max activity under setting [4] was 14% (inactive). On to `COc1cc(-c2coc3c(C(=O)NCc4ccc(C(F)(F)F)cc4)cccc23)ccc1O`, for which the max activity under setting [2] is -25.6% (inactive). Same read-out and setting: as for `CN(C)c1ccc2c(c1)[C@@H]1C[C@@H](CC(=O)NCc3ccc(Oc4ccccc4)cc3)O[C@H](CO)[C@@H]1O2`, the figure is -31.7% (inactive). On to `CCc1ccc(/C=C2\SC(=S)N(CCCC(=O)NC3=NCCS3)C2=O)cc1`, for which the max activity under setting [5] was -19% (inactive).

Turning to `CCC(C)Cn1c(O)cc2nn(-c3nc4ccccc4s3)c(=O)c-2c1C` (centres undefined), under setting [1], the max activity was -32.2% (inactive). As for `COc1ccc(C2=Nn3c([n+](C)c4ccccc43)SC2)cc1`, the max activity under setting [5] is -28.7% (inactive). As to `COc1ccc(/C=C2\SC(=S)N(CCCC(=O)NNC(=O)c3ccccc3O)C2=O)cc1`, under setting [3], the max activity is -21.1% (inactive). Consider `O=C(Nc1ccc(OC(=O)N2CCCCC2)cc1)N1CCOCC1`, for which, for the setting “at 2.85 µM”, the max activity was -13.3% (inactive).

With `CO[C@H]1CN(C)C(=O)c2cc(NC(=O)c3ccc(Oc4ccccc4)cc3)ccc2OC[C@H](C)NC[C@@H]1C`, the max activity under setting [6] is -95.1% (inactive).

In the case of `CCc1cnc(N2[C@H](C#N)[C@H](c3ccc(C#Cc4ccccc4F)cc3)[C@H]2CO)s1`, the max activity under setting [4] is 65.8% (inactive). For the molecule `CC(C)(C)c1ccc(Cn2c(=O)cnc3ccccc32)cc1`, under setting [6], the max activity was -40.9% (inactive). For the molecule `C[C@H](CO)N1C[C@H](C)[C@@H](CN(C)Cc2ccc(C(F)(F)F)cc2)OCCCC[C@H](C)Oc2ccc(NS(=O)(=O)c3ccc(F)cc3)cc2C1=O`, the max activity (at 0.3 µM, 0% = untreated, negative = ATP loss) is 27.5% (inactive). For `Cc1ccc2c(=O)n3c(nc2c1)C(Cc1ccc(O)cc1)NC(=O)c1cc2ccccc2cc1-3` (centres undefined), the max activity under setting [5] is -16.9% (inactive). As for `COc1ccc(NC(=O)N(C)[C@H]2C[C@H]3c4[nH]c5ccccc5c4CCN3C(=O)[C@H]2CO)cc1`, the max activity under setting [7] was -20.5% (inactive).

Take `COC(=O)C[C@@H]1CC[C@@H]2[C@@H](COc3ccc(NC(=O)Nc4cccc(Cl)c4)cc3C(=O)N2C)O1`: the max activity under setting [5] was -33.7% (inactive). For the molecule `COC(=O)C[C@@H]1CC[C@@H]2[C@H](COc3ccc(NC(=O)c4ccc(F)c(F)c4)cc3C(=O)N2C)O1`, the max activity under setting [3] was -21% (inactive). For the molecule `Cc1ccc(C(C(=O)NCc2ccco2)N(C(=O)CNC(=O)c2cccs2)c2c(C)cc(C)cc2C)cc1` (centres undefined), the max activity under setting [1] was -27% (inactive). For the molecule `COc1ccc(C/C(N)=N/OC(C)=O)cc1OC`, the max activity under setting [1] was -33.4% (inactive). With `N#C[C@@H]1[C@H](c2ccc(C#Cc3cccc(F)c3)cc2)[C@@H](CO)N1C(=O)C1CCCC1`, the max activity (at 0.012 µM, 0% = untreated, negative = ATP loss) is 24% (inactive).

Take `CC(=O)c1ccc(N=C2C(=O)Nc3ccccc32)cc1`: under setting [1], the max activity is -37.4% (inactive). With `CC1=NN(c2ccc(C)cc2)C(=O)/C1=C\C=C\c1ccccc1`, under setting [6], the max activity is -23.5% (inactive). Consider `CCOc1ccc(-c2cc(CCCC(=O)N3CCN(c4ccc(OC)cc4)CC3)no2)cc1`, for which the max activity under setting [7] was -25.4% (inactive). As for `Cc1ccc2nc(-c3ccccc3)nn2c1`, the max activity under setting [6] was -45.7% (inactive). Turning to `CCc1ccc(S(=O)(=O)c2ccc(-n3nc(C)cc3N)cc2)cc1`, the max activity under setting [5] was 24% (inactive). The same measure, in the same setting: as for `C[C@H](CO)N1C[C@H](C)[C@H](CN(C)Cc2ccc(C(F)(F)F)cc2)Oc2ccc(NC(=O)CCCCCC(=O)Nc3ccccc3N)cc2CC1=O`, the figure is -23.5% (inactive).

As to `COc1ccc(/C=C2\SC(=O)N(CCCC(=O)Nc3cc(Cl)ccc3C(=O)O)C2=O)cc1`, under setting [3], the max activity is -25.6% (inactive).
